Where two headings read alike, the source gives them in different places.
Target: T1, F508delCFTR (Homo sapiens, UniProt P13569, DEL508-508)
T1 construct: expressed in transfected cells; host or cells: CFBE41o- human lung-derived epithelial cells (CFBE4lo-F508delCFTR-HRP), doxycycline-inducible
Experiment: Cell Surface Expression-Horse Radish Peroxidase (CSE-HRP) Assay;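 as to Maximum % activity (with co-corrector): co-corrector and positive control are both the same reference corrector at 2 µM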;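 as to Maximum % activity (without co-corrector): percent of the 2 µM on-plate positive control corrector response above DMSO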
Format: cell-based
Settings: for Maximum % activity (with co-corrector) / Emax: maximum at any tested concentration, normalized to on-plate positive control; for Emax: read-out: Maximum % activity (without co-corrector)

[1] = CSE-HRP, test compound without co-corrector, read-out: EC50 (without co-corrector)
[2] = CSE-HRP, with co-corrector (2 μM of 3-[(2R,4R)-4-({[1-(2,2-difluoro-1,3-benzodioxol-5-yl)cyclopropyl]carbonyl}amino)-7-methoxy-3,4-dihydro-2H-chromen-2-yl]benzoic acid), read-out: EC50 (with co-corrector)
[3] = CSE-HRP, with co-corrector (2 μM)
[4] = test compound without co-corrector
[5] = test compound without co-corrector, read-out: EC50 (without co-corrector)
[6] = with co-corrector (2 μM of 3-[(2R,4R)-4-({[1-(2,2-difluoro-1,3-benzodioxol-5-yl)cyclopropyl]carbonyl}amino)-7-methoxy-3,4-dihydro-2H-chromen-2-yl]benzoic acid)
[7] = with co-corrector (2 μM of 3-[(2R,4R)-4-({[1-(2,2-difluoro-1,3-benzodioxol-5-yl)cyclopropyl]carbonyl}amino)-7-methoxy-3,4-dihydro-2H-chromen-2-yl]benzoic acid), read-out: EC50 (with co-corrector)

T1 sequence (P13569 with tags, fused parts or gaps DEL508-508): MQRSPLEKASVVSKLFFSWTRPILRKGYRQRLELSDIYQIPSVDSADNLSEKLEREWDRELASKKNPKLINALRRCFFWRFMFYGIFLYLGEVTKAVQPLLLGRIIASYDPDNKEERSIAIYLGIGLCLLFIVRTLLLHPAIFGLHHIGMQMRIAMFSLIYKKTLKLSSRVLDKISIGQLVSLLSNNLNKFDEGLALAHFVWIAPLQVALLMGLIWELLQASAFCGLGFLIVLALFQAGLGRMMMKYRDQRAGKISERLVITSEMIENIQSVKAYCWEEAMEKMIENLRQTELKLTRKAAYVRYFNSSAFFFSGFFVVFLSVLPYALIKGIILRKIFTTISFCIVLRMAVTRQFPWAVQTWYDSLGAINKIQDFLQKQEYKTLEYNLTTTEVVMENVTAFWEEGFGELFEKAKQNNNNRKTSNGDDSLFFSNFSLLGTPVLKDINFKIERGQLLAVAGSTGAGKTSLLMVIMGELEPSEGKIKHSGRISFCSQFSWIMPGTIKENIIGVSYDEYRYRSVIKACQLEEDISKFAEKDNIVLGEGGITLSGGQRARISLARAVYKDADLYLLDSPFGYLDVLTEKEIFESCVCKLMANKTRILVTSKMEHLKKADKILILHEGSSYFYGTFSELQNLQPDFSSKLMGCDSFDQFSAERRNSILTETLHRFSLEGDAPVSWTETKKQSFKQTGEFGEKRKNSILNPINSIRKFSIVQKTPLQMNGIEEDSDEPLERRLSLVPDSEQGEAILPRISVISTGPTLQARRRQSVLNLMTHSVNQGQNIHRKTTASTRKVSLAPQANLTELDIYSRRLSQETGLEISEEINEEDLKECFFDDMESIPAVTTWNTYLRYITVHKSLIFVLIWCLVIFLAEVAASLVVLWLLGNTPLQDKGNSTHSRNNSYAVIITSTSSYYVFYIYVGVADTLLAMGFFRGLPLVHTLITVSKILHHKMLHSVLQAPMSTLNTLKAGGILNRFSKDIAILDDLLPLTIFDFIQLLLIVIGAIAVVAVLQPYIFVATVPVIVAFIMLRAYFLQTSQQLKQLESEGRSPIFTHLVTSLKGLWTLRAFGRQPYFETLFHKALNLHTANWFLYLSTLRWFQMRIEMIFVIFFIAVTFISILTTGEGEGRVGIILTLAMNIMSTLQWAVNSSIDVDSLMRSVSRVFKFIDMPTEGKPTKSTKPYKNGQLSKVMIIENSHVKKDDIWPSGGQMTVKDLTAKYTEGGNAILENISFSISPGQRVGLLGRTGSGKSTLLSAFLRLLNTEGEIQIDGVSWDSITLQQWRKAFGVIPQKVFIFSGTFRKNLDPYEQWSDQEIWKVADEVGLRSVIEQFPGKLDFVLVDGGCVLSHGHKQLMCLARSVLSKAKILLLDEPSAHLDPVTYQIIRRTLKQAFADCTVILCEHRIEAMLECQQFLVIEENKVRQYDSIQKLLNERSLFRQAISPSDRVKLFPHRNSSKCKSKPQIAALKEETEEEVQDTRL

SMILES	EC50 [1] [nM]	EC50 [2] [nM]	Maximum % activity (with co-corrector) [3]	Emax (CSE-HRP, without co-corrector) [%]	Emax [4] [%]	EC50 [5] [nM]	Maximum % activity (with co-corrector) [6]	EC50 [7] [nM]	Maximum % activity (with co-corrector) (with co-corrector (2 μM))	Emax (without co-corrector) [%]
COc1ccc(C(C)(C)C)cc1CN[C@H]1[C@H](C2(C)CC2)[C@@H](C(=O)O)N(C(=O)C2CCCCC2)[C@H]1c1ccccc1 [II-302]	1000 to 10000	< 1000	+++ (≥350)	> 200	–	–	–	–	–	–
COc1ccc(-n2ncc(C(=O)N3[C@H](C(=O)O)[C@@H](C(C)(C)C)[C@H](NCc4cc(C(C)(C)C)ccc4OC)[C@@H]3c3ccccc3)c2C)cc1 [II-357]	–	–	–	–	> 200	1000 to 10000	+++ (≥350)	< 1000	–	–
COc1cc(C(C)(C)C)ccc1CN[C@H]1[C@H](C(C)(C)C)[C@@H](C(=O)O)N(C(=O)OC(C)C)[C@H]1c1ccccc1OC [II-135]	1000 to 10000	1000 to 10000	+++ (≥350)	100 to 200	–	–	–	–	–	–
COc1ccc(C23CC(C2)C3)cc1CN[C@H]1[C@H](C(C)(C)C)[C@@H](C(=O)O)N(C(=O)OC(C)C)[C@H]1c1ccccc1C(C)C [III-220]	–	–	–	–	> 200	< 1000	–	< 1000	+++ (≥350)	–
COc1cccc([C@@H]2[C@H](NCc3ccc(Cl)cc3OC)[C@@H](C(C)(C)C)[C@H](C(=O)O)N2C(=O)C2CCCCC2)n1 (racemic) [III-67]	–	–	–	–	100 to 200	1000 to 10000	+++ (≥350)	1000 to 10000	–	–
COc1ccc(C(C)(C)C)cc1CN[C@H]1[C@H](C(C)(C)C)[C@@H](C(=O)O)N(C(=O)[C@@H](C)[C@H]2CCCCO2)[C@H]1c1ccccc1 (relative stereo) [II-455]	–	–	–	–	> 200	1000 to 10000	+++ (≥350)	1000 to 10000	–	–
COc1ncc(C(C)C)cc1CN[C@H]1[C@H](C(C)(C)C)[C@@H](C(=O)O)N(C(=O)C2CCCCC2)[C@H]1c1ccccc1 [II-157]	1000 to 10000	< 1000	+++ (≥350)	> 200	–	–	–	–	–	–
COc1cc(C(F)(F)F)ccc1CN[C@H]1[C@H](C(C)(C)C)[C@@H](C(=O)O)N(C(=O)C2CCCCC2)[C@H]1c1ccccc1F [II-261]	1000 to 10000	1000 to 10000	+++ (≥350)	< 100	–	–	–	–	–	–
COc1ncc(C2CCC2)cc1CN[C@H]1[C@H](C(C)(C)C)[C@@H](C(=O)O)N(C(=O)C2CCCCC2)[C@H]1c1cccc2c1OC(C)(C)C2 [Example I-307]	< 1000	< 1000	+++ (≥350)	> 200	–	–	–	–	–	–
COc1ccc(C(C)(C)C)cc1CN[C@H]1[C@H](C(C)(C)C)[C@@H](C(=O)O)N(C(=O)Cc2c[nH]cn2)[C@H]1c1ccccc1 [Example I-98]	–	–	–	–	–	1000 to 10000	–	1000 to 10000	++ (≥150 and <350)	< 100
COc1ncc(C2CC3CCC2C3)cc1CN[C@H]1[C@H](C(C)(C)C)[C@@H](C(=O)O)N(C(=O)C2CCCCC2)[C@H]1c1cccnc1N(C)C (stereo partly drawn) [Example I-133]	–	–	–	–	–	1000 to 10000	–	1000 to 10000	+++ (≥350)	> 200
COc1nc(C(C)(C)C)ccc1CN[C@H]1[C@H](C(C)(C)C)[C@@H](C(=O)O)N(C(=O)OC(C)C)[C@H]1c1ccccc1 [Example I-194]	–	–	–	–	–	1000 to 10000	–	1000 to 10000	+++ (≥350)	> 200
COc1ccc2cc(C)nc(N[C@H]3[C@H](C(C)(C)C)[C@@H](C(=O)O)N(C(=O)C4CCCCC4)[C@H]3c3ccccc3)c2c1 [III-154]	–	–	–	–	< 100	1000 to 10000	–	1000 to 10000	++ (≥150 and <350)	–
COc1ncc(C(F)(F)F)cc1CN[C@H]1[C@H](C(C)(C)C)[C@@H](C(=O)O)N(C(=O)C2CC2)[C@H]1c1ccccc1C(C)C [Example I-271]	1000 to 10000	1000 to 10000	+++ (≥350)	> 200	–	–	–	–	–	–
COc1ccc(C(C)(C)C)cc1CN[C@H]1[C@H](C(C)(C)C)[C@@H](C(=O)O)N(C(=O)C2CCC(F)(F)CC2)[C@H]1c1cccnc1N(C)C [II-468]	–	–	–	–	100 to 200	1000 to 10000	+++ (≥350)	1000 to 10000	–	–
COc1ccc(C(C)(C)C)cc1CN[C@H]1[C@H](C(C)(C)C)[C@@H](C(=O)O)N(C(=O)CC2CCC(C)(C)OC2)[C@H]1c1ccccc1 (stereo partly drawn) [II-176]	1000 to 10000	1000 to 10000	+++ (≥350)	100 to 200	–	–	–	–	–	–
COc1ccc(C(C)C)cc1CN[C@H]1[C@H](C(C)(C)C)[C@@H](C(=O)O)N(C(=O)C2CCCCC2)[C@H]1c1ccccc1 [II-168]	1000 to 10000	< 1000	+++ (≥350)	> 200	–	–	–	–	–	–
COc1ccc(C(C)(C)C)cc1CN[C@H]1[C@H](C(C)(C)C)[C@@H](C(=O)O)N(C(=O)C2CCCCC2)[C@H]1c1ccccc1OC [II-140]	1000 to 10000	< 1000	+++ (≥350)	100 to 200	–	–	–	–	–	–
COc1ccc(C(C)(C)C)cc1CN[C@H]1[C@H](C(C)(C)C)[C@@H](C(=O)O)N(C(=O)C2CC(=O)N(C3CC3)C2)[C@H]1c1ccccc1 (stereo partly drawn) [II-239]	1000 to 10000	1000 to 10000	+++ (≥350)	100 to 200	–	–	–	–	–	–
COc1ccc(C(C)(C)C)cc1CN[C@@H]1[C@@H](C(C)(C)C)[C@H](C(=O)NS(C)(=O)=O)N(C(=O)C2CCCCC2)[C@@H]1c1ccccc1 [Example I-203]	–	–	–	–	–	1000 to 10000	–	1000 to 10000	++ (≥150 and <350)	< 100
COc1ccc(C(F)(F)F)cc1CN[C@H]1[C@H](C(C)(C)C)[C@@H](C(=O)O)N(C(=O)OC(C)C)[C@H]1c1cccnc1OC(C)C [Example 78, (2S,3S,4S,5S)-3-tert-butyl-4-({[2-methoxy-5-(trifluoromethyl)phenyl]methyl}amino)-1-{[(propan-2-yl)oxy]carbonyl}-5-{2-[(propan-2-yl)oxy]pyridin-3-yl}pyrrolidine-2-carboxylic acid]	–	–	–	–	–	1000 to 10000	–	1000 to 10000	+++ (≥350)	> 200
COCCOc1cnc(Cl)cc1CN[C@@H]1[C@@H](C(C)(C)C)[C@H](C(=O)O)N(C(=O)C2CCCCC2)[C@@H]1c1ccccc1 (racemic) [III-72]	–	–	–	–	< 100	> 10000	++ (≥150 and <350)	1000 to 10000	–	–
COc1ccc(C(F)(F)F)cc1CN[C@H]1[C@H](C(C)(C)OC)[C@@H](C(=O)O)N(C(=O)C2CCCCC2)[C@H]1c1cccnc1OC [II-436]	–	–	–	–	100 to 200	1000 to 10000	+++ (≥350)	1000 to 10000	–	–
COc1ccc(C(F)(F)F)cc1CN[C@H]1[C@H](C(C)(C)C)[C@@H](C(=O)O)N(C(=O)CC2CCCCO2)[C@H]1c1ccccc1 (stereo partly drawn) [Example I-84]	–	–	–	–	–	1000 to 10000	–	1000 to 10000	+++ (≥350)	100 to 200
COc1ccc(C(F)(F)F)cc1CN[C@H]1[C@H](C(C)(C)C)[C@@H](C(=O)O)N(C(=O)[C@@H](OC)c2ccccc2)[C@H]1c1ccccc1 [Example I-34]	–	–	–	–	–	1000 to 10000	–	1000 to 10000	+++ (≥350)	> 200
COc1ccc(C(C)(C)C)cc1CN[C@H]1[C@H](C(C)(C)C)[C@@H](C(=O)O)N(C(=O)C(OC)C2CC2)[C@H]1c1ccccc1 (single isomer, unassigned) [Example I-96]	–	–	–	–	–	1000 to 10000	–	–	+++ (≥350)	–
